Test results: US20220296595A1, “CDK INHIBITORS” (QILU REGOR THERAPEUTICS INC., priority 2019, published 2022)
Where two headings read alike, the source gives them in different places.

Columns and labels:
T47D breast cancer cells = assay: Anti-proliferation assay in T47D cell (Cyquant, day 6); assay type: cell-based, human; settings: Homo sapiens, T47D, anti-proliferation, T47D cells; read-out: T47D IC50
From the text: T47D is a human breast cancer cell line commonly used in biomedical research involving the hormonal expression of cancer cells. T47D cells are distinct from other human breast cancer cells in that their progesterone receptors (PR) are not regulated by estradiol, a hormone that is abundant within the cells themselves. T47D cells have been employed in studies of the effects of progesterone on breast cancer and the corresponding transcriptional regulation caused by introduced drugs. The cells have been noted to be extremely resistant to estrogens and antiestrogens.
T47D breast cancer cells from American Type Culture Collection (ATCC, HTB-133) were plated at 3000 cells/well in 96-well plates, and were incubated in RPMI 1640 medium (Gibco, 31800105) with 10% Fetal Bovine Serum (FBS, Biowest, FB-1058) at 37° C., 5% CO2. After overnight incubation, baseline values were measured of the samples from one plate using Cyquant reagent (Invitrogen, C35011) following manufacturer's recommendations. Cells were incubated with the detection reagent for 1 hour at 37° C., and then the fluorescence was measured with excitation at 485 nm and emission at 535 nm using Spectra Max M5 (Molecular Devices, HD-4HYSG3196). Other plates were dosed with compounds at a ten-point dose concentration from 10 μM to 0.51 nM in a 3-fold dilution scheme. On day 6 after compound addition, Cyquant reagent was added and the fluorescence was measured using Spectra Max M5. The IC50 values of the test compound's anti-proliferation activity were determined from the baseline subtracted viability readout curve using Xlfit5/GraphPad Prism 5 software.

CDK2/CyclinE1 = biological target: T1, CDK2/CyclinE1 (Homo sapiens, UniProt P24941); assay: Assay for inhibition of CDK2/CyclinE1 (Caliper microfluidic kinase assay); assay type: biochemical; settings: read-out: CDK2 IC50
T1 construct: purchased SignalChem C29-18G
Procedure: The CDK2 enzyme assay for IC50 determination was performed as follows. Microfluidic kinase detection technology (Caliper) was used to monitor the phosphorylation of peptide substrate by CDK2/CyclinE1. The total reaction volume was 15 μL containing buffer A (100 mM HEPES (pH 7.5), 0.1% BSA, 0.01% Triton X-100, 1 mM DTT, 10 mM MgCl2, 10 μM Sodium Orthovanadate, 10 μM Beta-Glycerophosphate), 100 μM ATP, 5 nM CDK2/CyclinE1 (SignalChem, C29-18G), 5 μM FL-18 (5-FAM-QSPKKG-NH2), and the test compound at appropriate dilutions in DMSO. All components were added to the 384-well plate (Corning, 4514), and incubate at Room Temperature for 3 hours. The reaction was terminated by addition of 15 μL Stop Buffer (180 mM HEPES (pH 7.5), 20 mM EDTA, Coating-3 reagent (PerkinElmer, 760050)). The plate was loaded on Caliper EZ Reader (EZ Reader II, PerkinElmer, HD-4HYSG2772), and the reaction mixtures including substrate and product were sipped into the microfluidic chip for separation and detection. The IC50 values of the test compound were determined by fitting the inhibition curves by 4 parameter sigmoidal dose-response model using the Xlfit5/GraphPad Prism 5 software.

CDK4/CyclinD1 = biological target: T2, CDK4/CyclinD1 (Homo sapiens, UniProt P11802); assay: Assay for inhibition of CDK4/CyclinD1 (Caliper microfluidic kinase assay); assay type: biochemical
T2 construct: purchased Thermofisher PR8064A
T2 sequence (P11802 whole entry): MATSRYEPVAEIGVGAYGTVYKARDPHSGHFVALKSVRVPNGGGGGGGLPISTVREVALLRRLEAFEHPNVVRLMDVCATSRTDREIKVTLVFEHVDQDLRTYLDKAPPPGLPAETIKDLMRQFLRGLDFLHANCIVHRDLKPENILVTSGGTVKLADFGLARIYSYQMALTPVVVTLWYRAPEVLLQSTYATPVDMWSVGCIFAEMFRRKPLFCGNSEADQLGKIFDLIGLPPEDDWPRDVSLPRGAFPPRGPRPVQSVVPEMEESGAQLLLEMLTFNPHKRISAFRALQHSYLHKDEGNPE
T2 sequence (P24385 whole entry partner): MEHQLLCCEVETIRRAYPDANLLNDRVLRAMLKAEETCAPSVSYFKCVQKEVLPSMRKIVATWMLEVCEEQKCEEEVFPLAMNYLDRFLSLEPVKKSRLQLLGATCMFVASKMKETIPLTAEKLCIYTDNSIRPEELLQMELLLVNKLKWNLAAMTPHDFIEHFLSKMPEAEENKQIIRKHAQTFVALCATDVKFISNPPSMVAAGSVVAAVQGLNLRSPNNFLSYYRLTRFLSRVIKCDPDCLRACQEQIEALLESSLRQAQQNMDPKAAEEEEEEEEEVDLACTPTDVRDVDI
Procedure: The CDK4 enzyme assay for IC50 determination was performed as follows. Microfluidic kinase detection technology (Caliper) was used to monitor the phosphorylation of peptide substrate by CDK4/CyclinD1. The total reaction volume was 15 μL containing buffer A (100 mM HEPES (pH 7.5), 0.1% BSA, 0.01% Triton X-100, 1 mM DTT, 10 mM MgCl2, 10 μM Sodium Orthovanadate, 10 μM Beta-Glycerophosphate), 200 μM ATP, 1 nM CDK4/CyclinD1 (Thermofisher, PR8064A), 1 μM FL-34 (5-FAM-[…]), and the test compound at appropriate dilutions in DMSO. All components were added to the 384-well plate (Corning, 4514), and incubated at Room Temperature for 3 hours. The reaction was terminated by addition of 15 μL Stop Buffer (180 mM HEPES (pH 7.5), 20 mM EDTA, Coating-3 reagent (PerkinElmer, 760050)). The plate was then loaded on Caliper EZ Reader (EZ Reader II, PerkinElmer, HD-4HYSG2772), and the reaction mixtures including substrate and product were sipped into the microfluidic chip for separation and detection. The IC50 values of the test compound were determined by fitting the inhibition curves by 4 parameter sigmoidal dose-response model using the Xlfit5/GraphPad Prism 5 software.

Compound	IC50 (T47D breast cancer cells) [nM]	IC50 (CDK2/CyclinE1; CDK2/CyclinE1, 100 μM ATP) [nM]	IC50 (CDK4/CyclinD1; CDK4/CyclinD1, 200 μM ATP) [nM]	IC50 (CDK2/CyclinE1; CDK2/CyclinE1) [nM]	IC50 (CDK4/CyclinD1; CDK4/CyclinD1) [nM]
CC1(N)CCN(c2ccc(Nc3nccc(-c4cc(F)c5c(c4)C4(CCCC4)CO5)n3)nc2)C(=O)C1 (stereo not drawn) [compound 260]	< 100	10 to 100	< 10		
CC1(C)COc2c(F)cc(-c3ccnc(Nc4ccc(N5CCCC(N)C5=O)cc4)n3)cc21 (stereo not drawn) [compound 263]	< 100	10 to 100	< 10		
CNC1CCCN(c2ccc(Nc3nccc(-c4cc(F)c5c(c4)C(C)(C)CO5)n3)cc2)C1=O (stereo not drawn) [compound 265]	< 100	10 to 100	< 10		
CN(C)C1CCCN(c2ccc(Nc3nccc(-c4cc(F)c5c(c4)C(C)(C)CO5)n3)cc2)C1=O (stereo not drawn) [compound 266]	< 100	100 to 1000	< 10		
CC(C)n1cnc2c(F)nc(-c3ccnc(Nc4ccc(N5CCN(C6CC6)CC5)cn4)n3)cc21 [compound 267]	< 100	100 to 1000	< 10		
CC(C)n1cnc2c(F)nc(-c3ccnc(Nc4ccc(N5CCC(N(C)C)C5=O)cc4)n3)cc21 (stereo not drawn) [compound 268]	< 100	10 to 100	< 10		
Cc1nc2c(F)nc(-c3ccnc(Nc4ccc(N5CCN(C(C)C)CC5)cn4)n3)cc2n1C(C)C [compound 269]	< 100	> 1000	< 10		
CNC1CCCN(c2ccc(Nc3nccc(-c4cc5c(ncn5C(C)C)c(F)n4)n3)nc2)C1=O (stereo not drawn) [compound 284]	< 100	> 1000	< 10		
CNC1CCCN(c2ccc(Nc3nccc(-c4cc5c(ncn5C(C)C)c(F)n4)n3)cc2)C1=O (stereo not drawn) [compound 294]	< 100	10 to 100	< 10		
Cc1nc2c(F)nc(-c3ccnc(Nc4ccc(N5CCC(N(C)C)CC5=O)cc4)n3)cc2n1C(C)C (stereo not drawn) [compound 295]	< 100	< 10	< 10		
CNC1CCCN(c2ccc(Nc3ncc(C)c(-c4cc5c(ncn5C(C)C)c(F)n4)n3)cc2)C1=O (stereo not drawn) [compound 298]	< 100	100 to 1000	< 10		
CNC1CCCN(c2ccc(Nc3ncc(Cl)c(-c4cc5c(ncn5C(C)C)c(F)n4)n3)cc2)C1=O (stereo not drawn) [compound 299]	< 100	100 to 1000	< 10		
CC(C)n1cnc2c(F)nc(-c3nc(Nc4ccc(N5CCCC(N(C)C)C5=O)cn4)ncc3F)cc21 (stereo not drawn) [compound 300]	< 100	> 1000	< 10		
CC(C)n1cnc2c(F)nc(-c3ccnc(Nc4ccc(N5CCCC(N(C)C)C5=O)cc4)n3)cc21 (stereo not drawn) [compound 304]	< 100	10 to 100	< 10		
CC(C)n1cnc2c(F)nc(-c3ccnc(Nc4ccc(N5CCCC(N)C5=O)cc4F)n3)cc21 (stereo not drawn) [compound 306]	< 100	10 to 100	< 10		
CC(C)n1cnc2c(F)nc(-c3ccnc(Nc4ccc(N5CCN(C(C)(C)C)CC5)cn4)n3)cc21 [compound 308]	< 100	100 to 1000	< 10		
CC(C)n1cnc2c(F)nc(-c3ccnc(Nc4ccc(N5CCN(CCF)CC5)cn4)n3)cc21 [compound 309]	< 100	100 to 1000	< 10		
COc1nc(-c2ccnc(Nc3ccc(N4CCCC(N(C)C)C4=O)cc3)n2)cc2c1ncn2C(C)C (stereo not drawn) [compound 311]	< 100			100 to 1000	< 10
